In PMC6768889 (Cancer Chemotherapy and Pharmacology, 2019):
Where “and” joins values, the source holds several entries; their conditions need not be identical. Identical values can stand only once. Counter-ions that a name gives are not always drawn. Like-named read-outs stand apart in the source and are kept apart here.

Legend:
gastric acid secretion = test system: gastric acid secretion; parameters: method as in earlier work; conditions: cited from earlier work
[1] = by treatment group
[2] = cited from earlier work
[3] = Phase 1 drug–drug interaction study: plasma PK of quizartinib, AC886 and quizartinib + AC886 after a single 30-mg quizartinib tablet alone or with lansoprazole; assay type: in vivo, human; conditions: for Vd/F: read-out: Vz/F (CV%), geometric mean; for CL/F (CV%), geometric mean: quizartinib
Description: The tolerability and safety of quizartinib administered alone and in combination with lansoprazole were also assessed. The study was conducted in compliance with the Declaration of Helsinki and the International Conference on Harmonisation (ICH)/Good Clinical Practice as well as all applicable state, local, and federal regulations. The study protocol, amendments, and informed consent forms were reviewed and approved by the institutional review board. All subjects provided written informed consent before any study-related procedure took place.
Subjects were randomized into two groups: lansoprazole and quizartinib (lansoprazole + quizartinib; test group) and quizartinib alone (reference group). On days 1–5, subjects in the test group were administered 60-mg lansoprazole (2 × 30 mg oral delayed-released capsule) once daily in the morning before food. […] All study drugs were taken with approximately 240 mL of water.
Plasma concentrations were determined by BASi (West Lafayette, IN, USA) using a validated analytical method.
Samples were injected into an LC–MS/MS system (LC: Nexera System, Shimadzu Scientific Instruments, Columbia, MD, USA; MS: API 5500™, SCIEX, Framingham, MA, USA) using a PFP column (Phenomenex/Kinetex, Torrance, CA, USA) with a gradient ammonium formate/formic acid/acetonitrile/water mobile phase. […] For AC886 at the LLOQ, precision was 6.0% CV and accuracy was 0.2% bias across 14 runs; accuracy ranged from −7.9 to 10.6% bias within runs. For AC886 at the upper limit of quantitation, precision was 2.9% CV and accuracy was −1.4% bias across 14 runs; accuracy ranged from −6.4 to 4.6% bias within runs.
A sample size of 25 subjects per group was determined to yield a ≤ 10% relative standard error of the mean, based on the observed intersubject coefficient of variation (CV%) of approximately 60% for PK parameters in a previous drug–drug interaction study in healthy volunteers (data on file, Daiichi Sankyo, Inc., Basking Ridge, NJ, USA). Up to 32 subjects/group were planned to account for possible premature withdrawal. Descriptive statistics were used to summarize plasma concentrations and PK parameters of the PK analysis population. Safety parameters were summarized in the safety analysis population using descriptive statistics. All descriptive statistics were calculated using SAS® software version 9.3 (SAS Institute Inc., Cary, NC, USA). […] PK parameters were natural logarithm (ln)-transformed prior to analyses. The ln-transformed PK results were back-transformed by exponentiation to obtain the geometric least squares mean (LSM) for each treatment and calculate geometric LSM ratios for pairwise comparisons.

[4] = Safety: treatment-emergent adverse events, vital signs and laboratory tests in the phase 1 study; assay type: in vivo, human
Description: The safety analysis population consisted of all randomized subjects who received quizartinib or at least one dose of lansoprazole. Safety was assessed with physical examinations, vital signs, AE evaluations, 12-lead electrocardiograms (ECGs), and clinical laboratory tests (hematology, chemistry, and urinalysis). AEs were evaluated during the study according to the Medical Dictionary for Regulatory Activities version 17.1 and assessed for severity and relation to study drugs. Laboratory results were summarized based on National Cancer Institute Common Terminology Criteria for Adverse Events version 4.03.

[5] = In vitro solubility assessment; assay type: physicochemical
[6] = day 5, up to 8 h after quizartinib
[7] = healthy subjects, single 30-mg quizartinib
[8] = quizartinib in plasma, single 30-mg quizartinib alone, n = 30
[9] = all patients, quizartinib with/without lansoprazole, N = 63
[10] = all subjects, quizartinib with or without lansoprazole
[11] = by treatment group, safety population

## Cc1c(OCC(F)(F)F)ccnc1C[S+]([O-])c1nc2ccccc2[nH]1 (centres unmarked) [Lansoprazole, lansoprazole]
Gastric acid secretion
  Duration of inhibitory effect on gastric acid secretion: over 24 h
  Elimination half-life: less than 2 h
Gastric acid secretion; lansoprazole 30 mg once daily for 5 days, baseline 2.1
  Mean 24-h intragastric pH: 4.9

## CC(C)(C)c1cc(NC(=O)Nc2ccc(-c3cn4c(n3)sc3cc(OCCN5CCOCC5)ccc34)cc2)no1 [Quizartinib, quizartinib]
[1]
  Subjects with maximum QTcF value > 480 ms: None
[1]; [6]
  Maximum QTcF change from baseline in most subjects: ≤ 30 ms
  Maximum QTcF value in most subjects: ≤ 450 ms
[2]; estimated in AML patients, ref data on file, Daiichi Sankyo Inc., Basking Ridge, NJ, USA
  half-life: 73 h
[2]; healthy subjects and patients with AML, range 2–8 h
  Time to maximum concentrations: 4 h
[3]; [7]
  Decrease in AUCinf (geometric LSM) for lansoprazole + quizartinib versus quizartinib alone: 4.7%
  Decrease in AUClast (geometric LSM) for lansoprazole + quizartinib versus quizartinib alone: 6.0%
  Decrease in Cmax (geometric LSM) for lansoprazole + quizartinib versus quizartinib alone: 13.9%
[3]; human, plasma, oral, 30 mg, quizartinib in plasma, quizartinib alone, n = 30, read-out: AUCinf, geometric LS mean (ANOVA)
  AUC(0-inf): 8660 ng·h/mL
[3]; human, plasma, oral, 30 mg, quizartinib in plasma, quizartinib alone, n = 30, read-out: AUClast, geometric LS mean (ANOVA)
  AUC(0-t): 8330 ng·h/mL
[3]; human, plasma, oral, 30 mg, quizartinib in plasma, single 30-mg quizartinib alone, n = 30, read-out: AUCinf (CV%), geometric mean
  AUC(0-inf): 8660 ng·h/mL
[3]; human, plasma, oral, 30 mg, quizartinib in plasma, single 30-mg quizartinib alone, n = 30, read-out: AUClast (CV%), geometric mean
  AUC(0-t): 8330 ng·h/mL
[3]; human, plasma, oral, 30 mg
  Vd/F: 431 L
[3]; human, plasma, oral, quizartinib in plasma, lansoprazole 60 mg once daily + single 30-mg quizartinib, n = 31, read-out: AUCinf (CV%), geometric mean
  AUC(0-inf): 8260 ng·h/mL
[3]; human, plasma, oral, quizartinib in plasma, lansoprazole 60 mg once daily + single 30-mg quizartinib, n = 32, read-out: AUClast (CV%), geometric mean
  AUC(0-t): 7830 ng·h/mL
[3]; human, plasma, oral, quizartinib in plasma, lansoprazole + quizartinib, n = 31, read-out: AUCinf, geometric LS mean (ANOVA)
  AUC(0-inf): 8260 ng·h/mL
[3]; human, plasma, oral, quizartinib in plasma, lansoprazole + quizartinib, n = 32, read-out: AUClast, geometric LS mean (ANOVA)
  AUC(0-t): 7830 ng·h/mL
[3]; human, plasma, oral, read-out: Mean T1/2 (SD), arithmetic mean (converted)
  half-life: 107 h
[3]; human, plasma, oral, read-out: Median Tmax (min, max)
  Tmax: 3.5 h
[3]; human, plasma, oral
  Vd/F: 479 L
[3]; quizartinib in plasma, healthy subjects, single 30-mg quizartinib tablet alone, fasted, n = 30
  Median Tmax (min, max): 4.0 (2.0, 8.0) h
[3]; quizartinib in plasma, quizartinib alone, n = 30
  Cmax, geometric LS mean (ANOVA): 104.8 ng/mL
[3]; [8]
  Cmax (CV%), geometric mean: 105 (16.3) ng/mL
  Mean T1/2 (SD), arithmetic mean: 102.2 (29.0) h
[3]; lansoprazole 60 mg once daily + single 30-mg quizartinib, n = 31
  CL/F (CV%), geometric mean: 3.2 L/h and 3.2 (46.4)^b L/h
[3]; single 30-mg quizartinib alone, n = 30
  CL/F (CV%), geometric mean: 3.1 L/h and 3.1 (37.4) L/h
[4]; [9]
  TEAE: Back pain: 2 (3.2) n (%)
  TEAE: Constipation: 2 (3.2) n (%)
  TEAE: Dermatitis: 1 (1.6) n (%)
  TEAE: Diarrhea: 1 (1.6) n (%)
  TEAE: Dizziness: 1 (1.6) n (%)
  TEAE: Fatigue: 2 (3.2) n (%)
  TEAE: Headache: 3 (4.8) n (%)
  TEAE: Hypoacusis: 1 (1.6) n (%)
  TEAE: Hypoesthesia: 1 (1.6) n (%)
  TEAE: Muscle tightness: 2 (3.2) n (%)
  TEAE: Musculoskeletal pain: 1 (1.6) n (%)
  TEAE: Musculoskeletal stiffness: 1 (1.6) n (%)
  TEAE: Nasal congestion: 1 (1.6) n (%)
  TEAE: Nausea: 2 (3.2) n (%)
  TEAE: Phlebotomy: 1 (1.6) n (%)
  TEAE: Sneezing: 1 (1.6) n (%)
  TEAE: Throat irritation: 1 (1.6) n (%)
  TEAE: Upper respiratory tract infection: 5 (7.9) n (%)
  TEAE: Vessel puncture site pain: 1 (1.6) n (%)
[4]; [10]
  Abnormalities in vital signs, hematology, or clinical chemistry: No significant abnormalities
  Severe or serious TEAEs: no severe or serious TEAEs
  Subjects with TEAEs of mild severity among the 20 subjects who experienced a TEAE: 95%
  Subjects with at least one quizartinib-related TEAE (nausea, diarrhea, dizziness, headache, fatigue): Three
[4]; all subjects, quizartinib with or without lansoprazole, N = 63
  Subjects with at least one treatment-emergent AE (TEAE) following quizartinib treatment on day 5: 31.7%
[4]; [11]
  TEAE: Back pain: 1 (3.3) n (%)
  TEAE: Constipation: 1 (3.3) n (%)
  TEAE: Dermatitis: 0 n (%)
  TEAE: Diarrhea: 1 (3.3) n (%)
  TEAE: Dizziness: 0 n (%)
  TEAE: Fatigue: 1 (3.3) n (%)
  TEAE: Headache: 3 (10.0) n (%)
  TEAE: Hypoacusis: 0 n (%)
  TEAE: Hypoesthesia: 0 n (%)
  TEAE: Muscle tightness: 2 (6.7) n (%)
  TEAE: Musculoskeletal pain: 1 (3.3) n (%)
  TEAE: Musculoskeletal stiffness: 1 (3.3) n (%)
  TEAE: Nasal congestion: 1 (3.3) n (%)
  TEAE: Nausea: 1 (3.3) n (%)
  TEAE: Phlebotomy: 0 n (%)
  TEAE: Sneezing: 1 (3.3) n (%)
  TEAE: Throat irritation: 1 (3.3) n (%)
  TEAE: Upper respiratory tract infection: 2 (6.7) n (%)
  TEAE: Vessel puncture site pain: 0 n (%)
[4]; by treatment group, safety population, after database lock one event was found to be pre-existing
  TEAE: Dysmenorrhea: 1 (3.3) n (%)
[4]; by treatment group, quizartinib alone n = 30, lansoprazole + quizartinib n = 33
  Subjects with at least one treatment-emergent AE (TEAE) following quizartinib treatment on day 5: 30.0%
[4]; healthy subjects, with or without lansoprazole
  Overall safety and tolerability: generally safe and well tolerated

## CC(C)(C)c1cc(NC(=O)Nc2ccc(-c3cn4c(n3)sc3cc(OCCN5CCOCC5)ccc34)cc2)no1 [quizartinib dihydrochloride]
[5]
  pH dependence of solubility: pH dependent
[5]; at physiological pH in the intestine
  solubility: < 0.4 µg/mL
